We go through 16 molecules from ChEMBL document CHEMBL4411333, “Optimization of Fused Bicyclic Allosteric SHP2 Inhibitors” (J Med Chem, 2019).

What is called IC50 is the concentration at which inhibition is half-maximal. As usually defined, the inhibition is the drop in the measured response relative to a control, in per cent. As a reminder, the ΔTm is the change in melting temperature against a reference sample. In general, bioavailability refers to the share of a dose that reaches the circulation, judged against a reference dose that is usually intravenous. A low value points to poor availability.

The source made the active and inactive calls. No cut-off for these calls is given here.

Series [1] has as its target T1, Tyrosine-protein phosphatase non-receptor type 11 (Homo sapiens, UniProt Q06124).
T1 sequence (Q06124 whole entry): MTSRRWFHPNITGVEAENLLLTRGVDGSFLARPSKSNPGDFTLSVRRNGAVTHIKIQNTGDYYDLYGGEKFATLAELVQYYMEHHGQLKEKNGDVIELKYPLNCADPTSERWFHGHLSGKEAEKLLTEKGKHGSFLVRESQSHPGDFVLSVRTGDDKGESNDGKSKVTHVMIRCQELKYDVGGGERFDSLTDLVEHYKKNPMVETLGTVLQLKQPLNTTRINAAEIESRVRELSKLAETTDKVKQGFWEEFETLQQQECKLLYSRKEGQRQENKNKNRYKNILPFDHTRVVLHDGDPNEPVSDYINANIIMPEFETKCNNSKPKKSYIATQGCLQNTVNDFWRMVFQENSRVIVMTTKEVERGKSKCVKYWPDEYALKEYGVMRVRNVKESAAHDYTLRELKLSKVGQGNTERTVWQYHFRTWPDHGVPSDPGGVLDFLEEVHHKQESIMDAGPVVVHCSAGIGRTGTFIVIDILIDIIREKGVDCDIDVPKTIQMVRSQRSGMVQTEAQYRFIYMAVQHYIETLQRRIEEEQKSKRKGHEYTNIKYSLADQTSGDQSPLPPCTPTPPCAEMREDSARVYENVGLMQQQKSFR
The experiment in a line: Inhibition of SHP2 in human KYSE520 cells assessed as suppression of ERK phosphorylation after 2 hrs by AlphaScreen SureFire Phospho-ERK1/2 assay. The class given is cell-based.

In series [2] the target is Voltage-gated inwardly rectifying potassium channel KCNH2 (Homo sapiens, UniProt Q12809).
The next series deals with KYSE-520 cell line. As to the kind of experiment: Antiproliferative activity against human KYSE520 cells after 5 days by Celltiter-Glo reagent-based assay. To be noted: KYSE-520, 5 days. A general note: In ATP-based viability assays light output follows the ATP content of the culture.
For series [3], the target named is T2, Tyrosine-protein phosphatase non-receptor type 11 (Homo sapiens) (UniProt Q06124).
T2 sequence (whole entry): T1 sequence (Q06124 whole entry)
As to the kind of experiment: Inhibition of SHP2 (unknown origin) at 40 uM.

Series [4] concerns the target T2, Tyrosine-protein phosphatase non-receptor type 11 (Homo sapiens). As to the kind of experiment: Stabilization of SHP2 (unknown origin) assessed as thermal denaturation by measuring change in melting temperature at 100 uM by differential scanning fluorimetry.
Series [5] can be described thus: Volume of distribution in Sprague-Dawley rat at 1 mg/kg, iv or 5 mg/kg, po. To be noted: in vivo. The class given is ADME, organism-based.
The nature of series [6]: Oral bioavailability in Sprague-Dawley rat at 5 mg/kg. The class given is ADME, organism-based. To be noted: in vivo.
Series [7] is described as follows: Clearance in rat liver microsomes. It is filed as ADME, Microsome. To be noted: read-out: CLH. On the technique in general: Microsomes from liver hold many membrane-bound enzymes, among them those of drug oxidation.
A short description of series [8]: Clearance in Sprague-Dawley rat at 1 mg/kg, iv or 5 mg/kg, po relative to hepatic extraction. The class given is ADME, organism-based. To be noted: in vivo.
A short description of series [9]: Terminal half life in Sprague-Dawley rat at 1 mg/kg, iv or 5 mg/kg, po. To be noted: in vivo, read-out: beta t1/2 (converted). It is filed as ADME, organism-based.
Series [10] is described as follows: Half life in rat liver microsomes. The class given is ADME, Microsome.
For series [11], the target named is T1, Tyrosine-protein phosphatase non-receptor type 11. The experiment in a line: Inhibition of human 6His-tagged SHP2 (2 to 593 residues) expressed in Escherichia coli BL21 Star (DE3) using DiFMUP as substrate preincubated for 30 mins followed by substrate addition by fluorescence assay.
For series [12], the species on record is Mus musculus. To be noted: 100 mg/kg.
Series [13] is filed under the species Mus musculus. To be noted: 100 mg/kg. This is another data set of the same source.

Chain of Voltage-gated inwardly rectifying potassium channel KCNH2 (Q12809 whole entry): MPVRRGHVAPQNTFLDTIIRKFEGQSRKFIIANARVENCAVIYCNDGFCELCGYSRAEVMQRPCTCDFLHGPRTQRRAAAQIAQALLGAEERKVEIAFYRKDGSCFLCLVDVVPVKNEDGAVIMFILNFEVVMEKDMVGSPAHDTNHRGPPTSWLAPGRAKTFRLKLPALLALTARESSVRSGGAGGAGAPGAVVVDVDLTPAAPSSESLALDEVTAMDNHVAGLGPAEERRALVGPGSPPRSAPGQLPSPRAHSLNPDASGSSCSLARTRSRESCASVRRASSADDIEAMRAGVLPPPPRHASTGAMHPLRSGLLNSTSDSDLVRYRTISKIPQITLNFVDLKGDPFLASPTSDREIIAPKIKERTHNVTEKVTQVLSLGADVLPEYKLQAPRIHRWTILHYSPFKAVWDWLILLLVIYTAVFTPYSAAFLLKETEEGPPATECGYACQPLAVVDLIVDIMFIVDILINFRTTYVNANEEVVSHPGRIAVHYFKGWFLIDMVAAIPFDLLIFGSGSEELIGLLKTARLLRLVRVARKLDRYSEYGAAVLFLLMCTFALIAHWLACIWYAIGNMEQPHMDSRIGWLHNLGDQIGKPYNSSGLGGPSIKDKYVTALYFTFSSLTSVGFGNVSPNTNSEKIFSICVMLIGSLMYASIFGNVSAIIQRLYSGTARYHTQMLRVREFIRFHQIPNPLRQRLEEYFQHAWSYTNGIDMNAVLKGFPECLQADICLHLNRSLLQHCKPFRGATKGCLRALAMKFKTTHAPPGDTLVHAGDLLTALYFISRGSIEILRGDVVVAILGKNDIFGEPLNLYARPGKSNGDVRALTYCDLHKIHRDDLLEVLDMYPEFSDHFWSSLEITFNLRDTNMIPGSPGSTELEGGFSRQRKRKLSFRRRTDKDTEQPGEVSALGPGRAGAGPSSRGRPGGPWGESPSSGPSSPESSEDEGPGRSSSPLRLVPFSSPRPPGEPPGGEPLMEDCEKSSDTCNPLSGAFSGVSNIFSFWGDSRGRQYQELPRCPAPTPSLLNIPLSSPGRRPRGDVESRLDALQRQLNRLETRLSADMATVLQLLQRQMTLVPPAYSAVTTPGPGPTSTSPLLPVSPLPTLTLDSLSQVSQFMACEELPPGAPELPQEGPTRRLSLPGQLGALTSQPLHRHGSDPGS

As for `Cc1nc(N)ccc1-c1n[nH]c2nc(N3CCC4(CC3)CO[C@@H](C)[C@H]4N)n(C)c(=O)c12`, the IC50 in series [1] was 38 nM; in series [2], 6600 nM; in the series on KYSE-520 cell line it was 660 nM.
Take `CN(C)Cc1ccc(-c2cc3onc(-c4ccccc4Cl)c3c(=O)n2C)cc1`: the inhibition in series [3] is 31%. Besides, the shift in melting temperature (ΔTm) in series [4] worked out at 0.67 °C.
`C[C@@H]1OCC2(CCN(c3cnc4c(-c5cccc(Cl)c5Cl)n[nH]c4n3)CC2)[C@@H]1N` displayed an IC50 in the series on KYSE-520 cell line of 460 nM.
In the case of `C[C@@H]1OCC2(CCN(c3nc4[nH]nc(-c5ccnc(NC6CC6)c5Cl)c4c(=O)n3C)CC2)[C@@H]1N`, the Vd in series [5] is 3.9 L/kg. This molecule displayed a bioavailability in series [6] of 2%. In addition, the microsomal CLint in series [7] was determined as 26.1 µL/min/mg. Besides, the CL in series [8] turned out to be 83%. Also, the figures for the half-life in series [9] and in [10] were 2.7 h and 0.887 h, respectively. Besides, the 50% inhibitory concentration (IC50) in the series with KYSE-520 cell line came to 360 nM.
In the case of `C[C@@H]1OCC2(CCN(c3nc4[nH]nc(Sc5ccnc(N)c5Cl)c4c(=O)n3C)CC2)[C@@H]1N`, the IC50 in series [1] was 96 nM; in series [2], over 30000 nM; in the series with KYSE-520 cell line, 720 nM.
`C[C@@H]1OCC2(CCN(c3nc4[nH]nc(-c5ccnc(Cl)c5Cl)c4c(=O)n3C)CC2)[C@@H]1N`: in the series with KYSE-520 cell line, 2600 nM corresponded to half-maximal inhibition (IC50).
`C[C@@H]1OCC2(CCN(c3nc4[nH]nc(-c5ccnc(N)c5Cl)c4c(=O)n3C)CC2)[C@@H]1N`: the IC50 in [11] is 32 nM; in series [1], 103 nM; in [2], over 30000 nM; in the series with KYSE-520 cell line, 1200 nM.
In the same order, the values of `C[C@@H]1OCC2(CCN(c3nc4[nH]nc(-c5ccnc(NC6CCC6)c5Cl)c4c(=O)n3C)CC2)[C@@H]1N` are 350 nM, 260 nM, 1900 nM and 380 nM.
In the series on KYSE-520 cell line, `Cn1c(N2CCC(C)(CN)CC2)nc2[nH]nc(-c3cccc(Cl)c3Cl)c2c1=O` displayed a half-inhibitory concentration (IC50) of 13500 nM.
As to `C[C@@H]1OCC2(CCN(c3nc4[nH]nc(-c5cccc(Cl)c5Cl)c4c(=O)n3C)CC2)[C@@H]1N`, the Vd in series [5] was 10.5 L/kg. The same molecule gave a bioavailability in series [6] of 51%. The inhibition result in the series filed under Mus musculus [12] and in the series filed under Mus musculus [13] was “Active” in each case. For the same molecule, in series [9], the half-life is 4.6 h. The molecule further yielded a concentration for half-maximal inhibition (IC50) in the series with KYSE-520 cell line of 167 nM.
Consider `CNc1nccc(-c2n[nH]c3nc(N4CCC5(CC4)CO[C@@H](C)[C@H]5N)n(C)c(=O)c23)c1Cl`, for which the IC50 in series [11] was 55 nM; in series [1], 22 nM; in series [2] it was over 30000 nM; with KYSE-520 cell line, 370 nM.
As for `Cn1c(N2CCC3(CC2)COC[C@H]3N)nc2[nH]nc(-c3cccc(Cl)c3Cl)c2c1=O`, the half-inhibitory concentration (IC50) amounted to 123 nM in [1] and 1730 nM in the series on KYSE-520 cell line.
Turning to `C[C@@H]1OCC2(CCN(c3cnc4c(-c5cccc(Cl)c5Cl)c[nH]c4n3)CC2)[C@@H]1N`, the figures for the IC50 in series [1] and in series [2] were 484 nM and 7 nM, respectively.
Regarding `Cn1c(N2CCC3(CCC[C@H]3N)CC2)nc2n[nH]c(-c3cccc(Cl)c3Cl)c2c1=O`, the concentration for half-maximal inhibition (IC50) is 31 nM in series [11], 30 nM in series [1], 250 nM in series [2] and 465 nM in the series on KYSE-520 cell line.
Take `Cc1ccc(-c2cc(C(=O)O)c3c(-c4ccc(Br)cc4)n[nH]c3n2)cc1`: the inhibition in [3] was found to be 30%. The shift in melting temperature (ΔTm) in [4] came out at 0.62 °C.
With `C[C@@H]1OCC2(CCN(c3nc4[nH]nc(-c5ccncc5)c4c(=O)n3C)CC2)[C@@H]1N`, the results for the IC50 (in series [1]; in series [2]; with KYSE-520 cell line) were 129 nM, over 30000 nM and 1260 nM, respectively.
